The values that follow come from ChEMBL document CHEMBL1201861, “Genomics of Drug Sensitity in Cancer screening data, Wellcome Trust Sanger Institute”.

In one assay the test system is K052. Briefly: cells. Type of assay: functional, cell-based, Homo sapiens. Particulars: Homo sapiens, K052.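 Note: Read-out from a cell viability assay, IC50 reflecting suppression of K052 cell growth.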
The test system of another assay is CA46. Description: cells. Type of assay: functional, cell-based, Homo sapiens. Particulars: Homo sapiens, CA46.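 Note: growth inhibition of human CA46 cells, read out by a cell viability assay.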
The test system of the next assay is BL-70. Description: SANGER: Inhibition of human BL-70 cell growth in a cell viability assay. Type of assay: functional, cell-based. Particulars: Homo sapiens, BL-70.
Another assay relates to BC-3. Briefly: cells. The note with it: Homo sapiens, BC-3. Type of assay: functional, cell-based, Homo sapiens.
Another assay has as its system RPMI-6666. Briefly: cells. Type of assay: functional, cell-based, Homo sapiens. Particulars: Homo sapiens, RPMI-6666.
Another assay relates to JIYOYE. Description: cells. The note with it: Homo sapiens, JIYOYE. Type of assay: functional, cell-based, Homo sapiens.
For another assay, the system named is LOUCY. Description: cells. The note with it: Homo sapiens, LOUCY. Type of assay: functional, cell-based, Homo sapiens.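 Note: growth inhibition of human LOUCY cells, read out with a cell viability assay.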
The next assay deals with P31-FUJ. Briefly: cells. Type of assay: functional, cell-based, Homo sapiens. The note with it: Homo sapiens, P31-FUJ.
Another assay deals with D-542MG. Briefly: cells. Type of assay: functional, cell-based, Homo sapiens. Particulars: Homo sapiens, D-542MG.
Another assay relates to NCI-H2227. Description: cells. Type of assay: functional, cell-based, Homo sapiens. Particulars: Homo sapiens, NCI-H2227.

Description for BC-3: SANGER: Inhibition of human BC-3 cell growth in a cell viability assay.
Description for CA46: SANGER: Inhibition of human CA46 cell growth in a cell viability assay.
Description for D-542MG: SANGER: Inhibition of human D-542MG cell growth in a cell viability assay.
Description for JIYOYE: SANGER: Inhibition of human JiyoyeP-2003 cell growth in a cell viability assay.
Description for K052: SANGER: Inhibition of human K052 cell growth in a cell viability assay.
Description for LOUCY: SANGER: Inhibition of human LOUCY cell growth in a cell viability assay.
Description for NCI-H2227: SANGER: Inhibition of human NCI-H2227 cell growth in a cell viability assay.
Description for P31-FUJ: SANGER: Inhibition of human P31-FUJ cell growth in a cell viability assay.
Description for RPMI-6666: SANGER: Inhibition of human RPMI-6666 cell growth in a cell viability assay.

What is called IC50 is the concentration that gives 50% inhibition. Lower therefore signals greater potency. Regarding `CCN(CC)CCNC(=O)c1c(C)[nH]c(/C=C2\C(=O)Nc3ccc(F)cc32)c1C` [SUNITINIB], the IC50 in the assay on K052 was 2400 nM; in the assay with CA46, 7.58 µM; in the assay on BL-70 it was 1120 nM; with BC-3 it was greater than 8000 nM; in the assay with RPMI-6666, 3540 nM; in the assay on JIYOYE, greater than 8 µM. The results for the IC50 in the assay with LOUCY and with P31-FUJ were greater than 8000 nM and greater than 8 µM, respectively.

On to `COc1cc(N2CCN(C)CC2)ccc1Nc1ncc2c(n1)N(C)c1ccccc1C(=O)N2C`, for which the IC50 in the assay with D-542MG is 2000 nM; with K052, 6240 nM; with CA46, greater than 8 µM; in the assay on BL-70, greater than 8000 nM; in the assay with BC-3, greater than 8000 nM; with RPMI-6666, 7860 nM. In addition, the IC50 was 6.89 µM with JIYOYE, greater than 8000 nM in the assay with LOUCY, greater than 8 µM with P31-FUJ and greater than 8 µM with NCI-H2227.

As for `OCCCNc1cc(-c2ccnc(Nc3cccc(Cl)c3)n2)ccn1`, the half-maximal inhibitory concentration (IC50) with K052 is greater than 256 nM; with CA46, greater than 0.256 µM; in the assay on BL-70, 30.1 nM; in the assay with BC-3 it was 76.6 nM; with RPMI-6666 it was 50.4 nM; in the assay on JIYOYE, 0.0322 µM. Besides, the IC50 was 62.2 nM in the assay with LOUCY and greater than 0.256 µM in the assay on P31-FUJ.

On to `COc1cc2ncn(-c3cc(OCc4ccccc4C(F)(F)F)c(C(N)=O)s3)c2cc1OC` [GW843682X], for which the IC50 was 35.4 nM with K052; greater than 0.256 µM in the assay on CA46; 8.55 nM in the assay on BL-70; greater than 256 nM in the assay with BC-3; 82.6 nM in the assay with RPMI-6666; 0.148 µM in the assay with JIYOYE. Moreover, the half-maximal inhibitory concentration (IC50) with LOUCY was 15.9 nM; in the assay with P31-FUJ, greater than 0.256 µM.

`CC(=O)O[C@H]1C(=O)[C@@]2(C)[C@H]([C@H](OC(=O)c3ccccc3)[C@]3(O)C[C@H](OC(=O)[C@H](O)[C@@H](NC(=O)c4ccccc4)c4ccccc4)C(C)=C1C3(C)C)[C@]1(OC(C)=O)CO[C@@H]1C[C@@H]2O` [PACLITAXEL]: the half-maximal inhibitory concentration (IC50) is 32.5 nM in the assay on K052; greater than 0.102 µM in the assay on CA46; 9.3 nM in the assay on BL-70; 23.4 nM with BC-3; 21.5 nM with RPMI-6666; 0.0218 µM in the assay with JIYOYE. In addition, the IC50 is 7.75 nM in the assay on LOUCY and greater than 0.102 µM with P31-FUJ.

As for `COc1cc(-c2nn([C@H]3CC[C@H](N4CCN(C(C)=O)CC4)CC3)c3ncnc(N)c23)ccc1NC(=O)c1cc2ccccc2n1C`, the half-inhibitory concentration (IC50) was greater than 5120 nM in the assay on K052; greater than 5.12 µM in the assay on CA46; less than 20 nM with BL-70; greater than 5120 nM in the assay on BC-3; 1580 nM in the assay on RPMI-6666; 4.21 µM with JIYOYE. The results for the half-maximal inhibitory concentration (IC50) with LOUCY and in the assay on P31-FUJ were greater than 5120 nM and greater than 5.12 µM, respectively.

As to `CC[C@H](CO)Nc1nc(NCc2ccccc2)c2ncn(C(C)C)c2n1` [SELICICLIB], the concentration for half-maximal inhibition (IC50) with D-542MG was greater than 16000 nM; in the assay with CA46, greater than 16 µM; in the assay on BL-70, greater than 16000 nM; in the assay with BC-3, greater than 16000 nM; in the assay with RPMI-6666, 13900 nM; with JIYOYE, 8.5 µM. Besides, the half-inhibitory concentration (IC50) was greater than 16000 nM in the assay on LOUCY, greater than 16 µM with P31-FUJ and greater than 16 µM in the assay with NCI-H2227.

Consider `COc1cc2ncn(-c3cc(OCc4ccccc4S(C)(=O)=O)c(C#N)s3)c2cc1OC` [GSK-319347A], for which the IC50 in the assay with D-542MG was greater than 5000 nM; with K052 it was greater than 5000 nM; in the assay with CA46, greater than 5 µM; in the assay on BL-70, greater than 5000 nM; in the assay with BC-3, greater than 5000 nM; in the assay with RPMI-6666 it was greater than 5000 nM. The IC50 with JIYOYE was greater than 5 µM; in the assay with LOUCY, greater than 5000 nM; with P31-FUJ, greater than 5 µM; with NCI-H2227, greater than 5 µM.

In the case of `N[C@@H](CSC(c1ccccc1)(c1ccccc1)c1ccccc1)C(=O)O` [S-TRITYL-L-CYSTEINE], the concentration for half-maximal inhibition (IC50) in the assay on K052 was 971 nM; in the assay on CA46, greater than 5.12 µM; in the assay with BL-70, 547 nM; in the assay with BC-3, 2190 nM; in the assay with RPMI-6666 it was greater than 5120 nM; with JIYOYE, 1.7 µM. The half-inhibitory concentration (IC50) in the assay with LOUCY was 480 nM; in the assay with P31-FUJ it was greater than 5.12 µM.

Turning to `Cc1ccc(-c2c(C(=O)CCl)n(CCCO)c3ncnc(N)c23)cc1`, the IC50 with K052 was greater than 4000 nM; in the assay on CA46, greater than 4 µM; in the assay with BL-70, greater than 4000 nM; in the assay with BC-3 it was greater than 4000 nM; in the assay on RPMI-6666, 2330 nM; with JIYOYE, greater than 4 µM. For the same compound, the concentration for half-maximal inhibition (IC50) in the assay on LOUCY is greater than 4000 nM; with P31-FUJ it was greater than 4 µM.

Consider `C#Cc1cccc(Nc2ncnc3cc(OCCOC)c(OCCOC)cc23)c1` [ERLOTINIB], for which the IC50 in the assay with D-542MG was greater than 2000 nM; in the assay on CA46, greater than 2 µM; with BL-70, greater than 2000 nM; in the assay on BC-3, greater than 2000 nM; in the assay with RPMI-6666, greater than 2000 nM; in the assay with JIYOYE, greater than 2 µM. Besides, the IC50 was greater than 2000 nM with LOUCY, greater than 2 µM with P31-FUJ and greater than 2 µM in the assay on NCI-H2227.
